Test results published in BindingDB's records for doi:10.1021/jm5004733 (University of Texas Medical Branch, 2014).

target: Transcription factor Jun (Homo sapiens, UniProt P05412); experiment: Inhibition of AP-1-mediated transcriptional activation in human Jurkat cells by luciferase reporter gene assay
Sequence (P05412 whole entry): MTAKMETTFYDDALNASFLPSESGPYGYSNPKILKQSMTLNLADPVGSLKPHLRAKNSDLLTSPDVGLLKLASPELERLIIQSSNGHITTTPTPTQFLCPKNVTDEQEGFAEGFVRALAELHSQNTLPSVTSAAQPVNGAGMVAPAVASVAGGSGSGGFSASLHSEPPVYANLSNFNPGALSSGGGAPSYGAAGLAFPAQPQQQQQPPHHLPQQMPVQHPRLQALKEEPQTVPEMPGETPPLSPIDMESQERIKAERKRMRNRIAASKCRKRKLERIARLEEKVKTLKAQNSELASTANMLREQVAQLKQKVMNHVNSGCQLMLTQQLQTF

| IC50 [µM] | SMILES |
| --- | --- |
| > 10 | O=C(Nc1cc(C(F)(F)F)cc(C(F)(F)F)c1)c1cnc(C(F)(F)F)nc1C(F)(F)F [2,4-Bis-trifluoromethyl-pyrimidine-5-carboxylic acid (3,5-bis-trifluoromethyl-phenyl)-amide] |
| > 30 | O=C(Nc1cc(C(F)(F)F)cc(C(F)(F)F)c1)c1ccc(Cl)cc1C(F)(F)F [N-(3,5-Bis-trifluoromethyl-phenyl)-4-chloro-2-trifluoromethyl-benzamide] |
| > 10 | N#Cc1ncc(C(=O)Nc2cc(C(F)(F)F)cc(C(F)(F)F)c2)c(C(F)(F)F)n1 [2-Cyano-4-trifluoromethyl-pyrimidine-5-carboxylic acid (3,5-bis-trifluoromethyl-phenyl)-amide] |
